# Values quoted from earlier work in patent US20200261400A1, “METHOD FOR LONG-TERM TREATMENT OF ROSACEA” (Sol-Gel Technologies Ltd., priority 2019, published 2020).
# System: rosacea lesions
# Settings: BPO as the sole active agent
compound,measurement,value
"O=C(OOC(=O)c1ccccc1)c1ccccc1 [BPO, Benzoyl peroxide]",response of lesions,unresponsive
